The record followed here is US10087242B2 (INSTITUT PASTEUR, priority 2007, dated 2018).

Common to all, as to format: binding, mouse
One test relates to IgM (G 19-2). Nature of the test: inhibition ELISA: oligosaccharide inhibits fixation of IgM G19-2 on LPS 3a. Conditions: concentration of oligosaccharide giving 50% inhibition of fixation of the mAb on LPS 3a (S. flexneri 3a), inhibition ELISA. As to the method:
Protocol 2) Ten Balb/C mice and four BP2 mice were immunized by i.p. injection with virulent live bacteria of the strain S. flexneri 3a, every three weeks, using 2×10^6 bacteria for the first 2 immunizations and 5×10^6 for the next 4. As the anti-LPS 3a antibody response was too weak for performing cellular fusion, an additional series of 4 injections was carried out. Two mAbs of type IgM, G19-2 and L18-9, were obtained.
(§1) The oligosaccharide determinants recognized by the four mAbs obtained were characterized by measuring, by inhibition ELISA, the interaction of the various oligosaccharides synthesized with these mAbs.
(§2) 1) First, a standard curve OD=f(concentration of the mAb) was established for each antibody.
(§3) For this, purified LPS from S. flexneri 3a was fixed in the wells of ELISA plates (96-well plate), at a concentration of 25 μg/ml in a carbonate buffer pH 9.6, at 4° C., overnight.
(§4) After washing the wells with a solution of PBS/ Tween 20 (0.05%) 1% and a stage of saturation with PBS/BSA 1% for 30 minutes at 4° C., various concentrations of each mAb were incubated for 30 minutes at 4° C. After a washing stage, a secondary antibody coupled to alkaline phosphatase and specific to the mouse IgGs or IgMs was added at a dilution of 1/5000 (Sigma-Aldrich) for 1 h at 37° C. After washing, the enzymatic reaction was carried out with the specific substrate of alkaline phosphatase (12 mg of p-nitrophenylphosphate in 1.2 ml of Tris-HCl buffer 1M (pH 8.8) and 10.8 ml of 5M NaCl). Once the color reaction had developed, the plates were read at 405 nm (Dynatech MR 4000 plate reader). The standard curve OD =f(Ab concentration) was refined with the equation Y=aX2+bX+c, where Y corresponds to the OD and X to the antibody concentration. A correlation factor (r2) of 0.99 was generally obtained.
(§5) 2) The concentration of oligosaccharide capable of inhibiting 50% of the fixation of the mAb on LPS 3a was then determined as follows.
(§6) Each mAb was used at a given concentration, defined as the first concentration tested giving a maximum OD on the standard curve (the first point at the start of the plateau of the curve). Various concentrations of each of the oligosaccharides to be tested were then incubated separately with the mAb at constant concentration, overnight at 4° C., in 1% PBS-BSA buffer. Measurement of the free antibody concentration was carried out as stated above, after incubation of the mAb/oligosaccharide mixtures at 4° C. for 30 minutes on plates covered with LPS 3a and using the standard curve obtained in parallel on the same plate. For each mAb and each oligosaccharide, a value called IC50 was then calculated, corresponding to the concentration of oligosaccharide permitting 50% inhibition of the fixation of the mAb on LPS 3a.

Another test deals with mIgG C7-37. Nature of the test: inhibition ELISA: oligosaccharide inhibits fixation of mIgG C7-37 on LPS 3a. The settings on record: concentration of oligosaccharide giving 50% inhibition of fixation of the mAb on LPS 3a (S. flexneri 3a). As to the method:
as §1, §2, §3, §4, §5, §6

The subject of a further test is mIgG G7-12. Nature of the test: inhibition ELISA: oligosaccharide inhibits fixation of mIgG G7-12 on LPS 3a. The settings on record: concentration of oligosaccharide giving 50% inhibition of fixation of the mAb on LPS 3a (S. flexneri 3a). As to the method:
as §1, §2, §3, §4, §5, §6

Bounds are passed on as bounds.

With `CCCO[C@@H]1O[C@@H](C)[C@H](O)[C@@H](O[C@@H]2O[C@@H](C)[C@H](O)[C@@H](O)[C@H]2O[C@@H]2O[C@@H](C)[C@H](O)[C@@H](O[C@H]3O[C@H](CO)[C@@H](O)[C@H](O)[C@H]3O)[C@H]2O[C@@H]2O[C@H](CO)[C@@H](O)[C@H](O)[C@H]2NC(C)=O)[C@H]1O` [DEABC)-OPr, Propyl (2-acetamido-2-deoxy-β-D-glucopyranosyl)-(1→2)-[α-D-glucopyranosyl-(1→3)]-α-L-rhamnopyranosyl-(1→2)-α-L-rhamnopyranosyl-(1→3)-α-L-rhamnopyranoside], the IC50 with IgM (G 19-2) was above 2.5 mM; in the test with mIgG C7-37 it was above 5 mM; with mIgG G7-12 it was above 2.5 mM.
In the case of `CCCO[C@@H]1OC(C)[C@H](O)C(O)C1O[C@@H]1OC(C)[C@H](O)C(O[C@H]2OC(CO)[C@@H](O)C(O)C2O)C1O[C@@H]1OC(CO)[C@@H](O)C(O[C@@H]2OC(C)[C@H](O)C(O[C@@H]3OC(C)[C@H](O)C(O)C3O)C2O)C1NC(C)=O` (stereo partly drawn) [BCDEAB-Opr], the values for the concentration for half-maximal inhibition (IC50) with IgM (G 19-2), with mIgG C7-37 and in the test with mIgG G7-12 were above 2.5 mM, above 5 mM and above 2.5 mM, respectively.
For `CCCO[C@@H]1O[C@@H](C)[C@H](O)[C@@H](O)[C@H]1O[C@@H]1O[C@@H](C)[C@H](O)[C@@H](O[C@H]2O[C@H](CO)[C@@H](O)[C@H](O)[C@H]2O)[C@H]1O` [EAB-OPr, Propyl α-D-glucopyranosyl-(1→3)-α-L-rhamnopyranosyl-(1→2)-α-L-rhamnopyranoside], the IC50 is above 2.5 mM with IgM (G 19-2), above 5 mM with mIgG C7-37 and above 2.5 mM with mIgG G7-12.
